Source: patent US5877175A, “Pharmaceutical compositions” (KNOLL Aktiengesellschaft, priority 1995, dated 1999)

Tests used:
[1] = system: myoclonic seizures induced in mice by the administration of bicuculline; assay: BICM test: antagonism of myoclonic seizures induced in mice by bicuculline; type: in vivo; conditions: female mice, 1 h before (+)-bicuculline 0.55 mg/kg i.v.; for ED50: Mus musculus, oral, dose inhibiting seizures in 50% of the animals; for % protection from bicuculline-induced seizures: figure in brackets, 100 mg/kg (po)
Excerpt: The ability of the compounds to antagonise the myoclonic seizures induced in mice by the administration of bicuculline was observed. Hereinafter, this test is referred to as "BICM".
In the BICM experiments groups of female mice in the weight range 25 to 30 grammes had free access to food and water until one hour before administration of the compound to be tested. The compound to be tested was orally administered at one or more doses in 1% aqueous methylcellulose solution. One hour later (+)-bicuculline at a dose of 0.55 mg/kg was administered intravenously into a tail vein. Such a dose of (+)-bicuculline would generally be expected to induce a seizure in the mice.
During the following two minutes the animals were observed and the percentage of animals in which seizures had been inhibited was recorded. Thus, the greater the anticonvulsant activity of the compound, the higher was the percentage recorded in the BICM test.
A value for the dose inhibiting the seizures in 50% of the animals (ED50) was calculated from the regression straight line plot of the percentage of animals in which seizures were inhibited against the dose of compound.

[2] = system: seizures in mice induced by a maximal electroshock; assay: MESM test: inhibition of seizures in mice induced by a maximal electroshock; type: in vivo; conditions: male mice, 1 h before electroshock (99 mA, 50 Hz, 1.0 second); for ED50: Mus musculus, oral, dose inhibiting seizures in 50% of the mice; for % protection from MES-induced seizure: figure in brackets, 100 mg/kg (po)
Protocol: The ability of the compounds to inhibit seizures in mice induced by a maximal electroshock was observed. Hereinafter, this test is referred to as `MESM`.
In the MESM experiments, groups of male mice in the weight range 25 to 30 grammes had free access to food and water until the start of the experiment. The mice were divided into two groups, a control group and a test group to which a compound of formula I or II would be administered. The control group received an oral dose of 10 ml/kg of a vehicle of 1% aqueous methyl cellulose solution. […] One hour after administration of all drugs an electroshock of duration 1.0 second was administered to all the mice in both groups through ear clip electrodes moistened with saline. […] Such a shock would generally be expected to induce a seizure in the mice.
The greater the anticonvulsant activity of the compound of formula I or II, the higher was the percentage recorded in the MESM test.
If results at more than one dose were available, then a value for the dose inhibiting seizures in 50% of the mice (ED50) was calculated from the regression straight line plot of the percentage of mice in which seizures were inhibited against the dose of the compound of formula I or II administered.

Question: Which ED50 [1] does the source give for CC(C)(C)c1nccc(-c2nn(-c3ccc(F)cc3)ccc2=O)n1 [Example 1, 3-(2-Tert-butylpyrimidin-4-yl)-1-(4-fluorophenyl)pyridazin-4(1H)-one] here?
Answer: 4.7 mg/kg

Question: Which ED50 [2] does the source give for CC(C)c1nccc(-c2nn(-c3ccc(F)cc3)ccc2=O)n1 [Example 2, 3-(2-isopropylpyrimidin-4-yl)-1-(4-fluorophenyl)pyridazin-4(1H)-one] here?
Answer: 83.4 mg/kg

Question: And the ED50 [1]?
Answer: 4.6 mg/kg

Question: With O=c1ccn(-c2ccc(F)cc2)nc1-c1ccnc(-c2ccccc2)n1 [Example 3, 3-(2-phenylpyrimidin-4-yl)-1-(4-fluorophenyl)pyridazin-4(1H)-one] as the compound, how does the “% protection from MES-induced seizure” value [2] read?
Answer: 50%

Question: For O=c1ccn(-c2ccc(Cl)cc2Cl)nc1-c1ccncn1 [Example 4, 3-(pyrimidin-4-yl)-1-(2,4-dichlorophenyl)pyridazin-4(1H)-one], which ED50 [2] is on record?
Answer: 73.6 mg/kg

Question: What about the ED50 [1] of the same compound?
Answer: 158 mg/kg

Question: How did the “% protection from MES-induced seizure” value [2] turn out when CC(C)c1nccc(-c2nn(-c3ccc(Cl)cc3)ccc2=O)n1 [Example 5, 3-(2-isopropylpyrimidin-4-yl)-1-(4-chlorophenyl)pyridazin-4(1H)-one] was run?
Answer: 50%

Question: And the ED50 [1]?
Answer: 11.8 mg/kg

Question: Which “% protection from bicuculline-induced seizures” value [1] does the source give for O=c1ccn(-c2ccc(Cl)cc2)nc1-c1ccnc(C2CC2)n1 [Example 6, 3-(2-cyclopropylpyrimidin-4-yl)-1-(4-chlorophenyl)pyridazin-4(1H)-one] here?
Answer: 60%

Question: O=c1ccn(-c2ccc(F)cc2)nc1-c1ccnc(C2CCCCC2)n1 [Example 7, 3-(2-cyclohexylpyrimidin-4-yl)-1-(4-fluorophenyl)pyridazin-4(1H)-one] was tested. Which “% protection from bicuculline-induced seizures” value [1] did it give?
Answer: 70%

Question: With O=c1ccn(-c2ccc(Cl)cc2)nc1-c1ccnc(C2CCCCC2)n1 [Example 8, 3-(2-cyclohexylpyrimidin-4-yl)-1-(4-chlorophenyl)pyridazin-4(1H)-one] as the compound, how does the ED50 [1] read?
Answer: 12.9 mg/kg

Question: Which “% protection from MES-induced seizure” value [2] does the source give for CCCc1nccc(-c2nn(-c3ccc(F)cc3)ccc2=O)n1 [Example 9, 3-(2-propylpyrimidin-4-yl)-1-(4-fluorophenyl)pyridazin-4(1H)-one] here?
Answer: 50%
